pIC50: −log10 of the molar value. Like-named read-outs stand apart in the source and are kept apart here.
How the values were obtained:
THP-1 cells = assay: Cell growth inhibition assay (CellTiter-Glo), THP-1; assay type: cell-based, human; settings: THP-1, 4 days; for GI50: Homo sapiens, 96 h, half-maximal growth inhibition; for THP-1 TGI: total growth inhibition
Protocol: (§1) Cell Growth Inhibition Assay
(§2) The human leukemia cell lines MV-4-11, THP-1 and K-562 were employed to characterize the effect of BET inhibitors on cellular proliferation and viability. Cells were obtained from the American Type Culture Collection (ATCC) and cultured at 37° C. in a humidified 5% CO2 incubator in the following media: MV-4-11: DMEM high glucose (Animed #1-26F01-I), 10% FCS (Animed #2-01F26-I), 4 mM L-Glutamine (Animed #5-10K50), 1 mM Sodium Pyruvate (Animed #G03625P), lx Penicillin-Streptomycin (Animed #F12478P); K-562: Iscove's MEM (Animed #1-28F16-I), 10% FCS (Animed #2-01F26-I), 4 mM L-Glutamine (Animed #5-10K50), 1× Penicillin-Streptomycin (Animed #F12478P); THP-1: RPMI-1640 (Animed #1-41F01-I), 10% FCS (Animed #2-01F26-I), 2 mM L-Glutamine (Animed #5-10K50), 10 mM HEPES (Animed #5-31F100), 1 mM Sodium Pyruvate (Animed #G03625P), 1× Penicillin-Streptomycin (Animed #F12478P). The AML lines MV-4-11 and THP-1 are very sensitive to BET inhibitors and show massive cell death upon BET inhibition (Zuber et al., Nature, 478 (2011), 524-8). Compound-mediated suppression of cell proliferation/viability was assessed by quantification of cellular ATP levels using the CellTiter-Glo (CTG) reagent (Promega). Briefly, cells were seeded in 20 μl fresh medium into 384-well plates, followed by addition of 5 μl medium containing compound dilutions at 5-fold their final intended concentration. Dose-response effects were assessed by 3-fold serial dilutions of the test compound, starting at 10 μM. Following incubation of the cells for 4 days at 37° C. and 5% CO2, the effect of inhibitors on cell viability was quantified following addition of 20 μl CTG and luminescence quantification (integration time: 100 ms) as per vendor manual, using a correspondingly equipped Tecan M200 multi-mode platereader (TECAN, Switzerland). For data analysis, the assay background value determined in wells containing medium, but no cells, was subtracted from all data points. To enable differentiation of cytotoxic from cytostatic compounds, the number of viable cells is assessed relative to that observed at the time of compound addition using a separate cell plate (day 0). The effect of a particular test compound concentration on cell proliferation/viability is expressed as percentage of the background- and day 0-corrected luminescence reading obtained for cells treated with vehicle only (DMSO, 0.1% final concentration), which is set as 100%, whereas that luminescence reading for wells containing medium is set as −100%. Compound concentrations leading to half-maximal (IC50) and total growth inhibition (TGI) were determined using standard four parameter curve fitting.

[1] = molecular target: CREBBP bromodomain (His-CREBBP(1081-1197)) (Homo sapiens (Human), UniProt Q92793); assay: AlphaScreen in-vitro binding assay for CREBBP
Protocol: AlphaScreen In-Vitro Binding Assay for CREBBP
In order to assess bromodomain selectivity, we set up a binding assay using the bromodomain encoded by the CREBBP gene. […] Reactions were incubated at 30° C. for 35 minutes. Subsequently 4.5 μl per well detection mix (50 mM HEPES, pH 7.5, 0.005% Tween20, 0.02% BSA, 150 mM NaCl, 45 μg/ml Ni-chelate acceptor beads, 45 μg/ml streptavidin-donor beads) (Perkin Elmer)) were added. After 60 minutes incubation at room temperature, plates were measured in a Perkin Elmer EnVision multilabel reader. IC50 values were determined from percent inhibition values at different compound concentrations by non-linear regression analysis.
(§3) Preparation of Compound Dilutions
(§4) Test compounds were dissolved in DMSO (10 mM) and transferred into 1.4 mL flat bottom or V-shaped Matrix tubes carrying a unique 2D matrix. The stock solutions were stored at […] if not used immediately. For the test procedure the vials were defrosted and identified by a scanner whereby a working sheet was generated that guided the subsequent working steps. Compound dilutions were made in 96 well plates. This format enabled the assay of maximally 40 individual test compounds at 8 concentrations (single points) including 4 reference compounds, if desired (known BET inhibitors from the prior art, for this and other assays of the type disclosed herein). The dilution protocol included the production of “pre-dilution plates”, “master plates” and “assay plates”.
(§5) Pre-dilution plates: 96 polypropylene well plates were used as pre-dilution plates. A total of 4 pre-dilution plates were prepared including 10 test compounds each on the plate positions A1-A10, one standard compound at A11 and one DMSO control at A12. All dilution steps were done on a HamiltonSTAR robot.
(§6) These plates were used directly for the assay which was performed in a total volume of 13.55 μL.

K-562 cells = assay: Cell growth inhibition assay (CellTiter-Glo), K-562; assay type: cell-based, human; settings: K-562, 4 days; for GI50: Homo sapiens, K562, 96 h, half-maximal growth inhibition; for K-562 TGI: total growth inhibition
Protocol: as §1, §2

MV-4-11 cells = assay: Cell growth inhibition assay (CellTiter-Glo), MV-4-11; assay type: cell-based, human; settings: MV-4-11, 4 days; for GI50: Homo sapiens, MV4-11, 96 h, half-maximal growth inhibition; for MV-4-11 TGI: total growth inhibition
Protocol: as §1, §2

BRD4 (His-Brd4(44-477)) = BRD4 (His-Brd4(44-477)) (Homo sapiens (Human), UniProt O60885); assay: TR-FRET in-vitro binding assay for BRD4; settings: acetyl-histone H4 peptide
Protocol: (§7) TR-FRET In-Vitro Binding Assays for BRD2, BRD3, and BRD4:
(§8) All assays were performed in 384 well microtiter plates. Each assay plate contained 8-point serial dilutions for 40 test compounds, plus 16 high- and 16 low controls. Liquid handling and incubation steps were done on an Innovadyne Nanodrop Express equipped with a robotic arm (Thermo CatX, Perkin Elmer/Caliper Twister II) and an incubator (Liconic STX40, Thermo Cytomat 2C450). The assay plates were prepared by addition of 50 nl per well of compound solution in 90% DMSO HummingBird nanodispenser (Zinsser Analytic). The assay was started by stepwise addition of 4.5 μl per well of bromo domain protein (50 mM HEPES, pH 7.5, 0.005% Tween20, 0.1% BSA, 50 mM NaCl, 45 nM His-Brd2(60-472) or 45 nM His-Brd3(20-477) or 45 nM His-Brd4(44-477) all proteins produced in-house) and 4.5 μl per well of peptide solution (50 mM HEPES, pH 7.5, 0.005% Tween20, 0.1% BSA, 50 mM NaCl, 60 nM acetyl-histone H4 (AcK 5, 8, 12, 16) (Biosyntan GmbH)). Reactions were incubated at 30° C. for 35 minutes. […] After 35 minutes incubation at 30° C., plates were measured in a Perkin Elmer EnVision multilabel reader. Concentrations causing 50% inhibition (IC50 values) were determined from percent inhibition values at different compound concentrations by non-linear regression analysis.
as §3, §4, §5
(§9) Master plates: 30 μL of individual compound dilutions including standard compound and controls of the 4 “pre-dilution plates” were transferred into a 384 “master plate” including the following concentrations 10000, 3003, 1000, 300, 100, 30, 10 and 3 μM, respectively in 90% of DMSO.
(§10) Assay plates: Identical “assay plates” were then prepared by pipetting 50 nL each of compound dilutions of the “master plates” into 384-well “assay plates” by means of a HummingBird 384-channel dispenser. These plates were used directly for the assay which was performed in a total volume of 13.55 μL. This led to a final compound concentration of 37, 11, 3.7, 1.1, 0.37, 0.11, 0.037 and 0.011 μM and a final DMSO concentration of 0.37% in the assay.

BRD3 (His-Brd3(20-477)) = BRD3 (His-Brd3(20-477)) (Homo sapiens (Human), UniProt Q15059); assay: TR-FRET in-vitro binding assay for BRD3; settings: acetyl-histone H4 peptide
Protocol: as §7
All assays were performed in 384 well microtiter plates. Each assay plate contained 8-point serial dilutions for 40 test compounds, plus 16 high- and 16 low controls. Liquid handling and incubation steps were done on an Innovadyne Nanodrop Express equipped with a robotic arm (Thermo CatX, Perkin Elmer/Caliper Twister II) and an incubator (Liconic STX40, Thermo Cytomat 2C450). The assay plates were prepared by addition of 50 nl per well of compound solution in 90% DMSO HummingBird nanodispenser (Zinsser Analytic). […] Reactions were incubated at 30° C. for 35 minutes. […] After 35 minutes incubation at 30° C., plates were measured in a Perkin Elmer EnVision multilabel reader.
as §3, §4, §5, §6

BRD2 (His-Brd2(60-472)) = BRD2 (His-Brd2(60-472)) (Homo sapiens (Human), UniProt P25440); assay: TR-FRET in-vitro binding assay for BRD2; settings: acetyl-histone H4 peptide
Protocol: as §7, §8, §3, §4, §5, §9, §10

[2] = AlphaScreen, acetyl-histone H4 peptide, read-out: CREBBP IC50

BRD2 (His-Brd2(60-472)), sequence (P25440 60-472): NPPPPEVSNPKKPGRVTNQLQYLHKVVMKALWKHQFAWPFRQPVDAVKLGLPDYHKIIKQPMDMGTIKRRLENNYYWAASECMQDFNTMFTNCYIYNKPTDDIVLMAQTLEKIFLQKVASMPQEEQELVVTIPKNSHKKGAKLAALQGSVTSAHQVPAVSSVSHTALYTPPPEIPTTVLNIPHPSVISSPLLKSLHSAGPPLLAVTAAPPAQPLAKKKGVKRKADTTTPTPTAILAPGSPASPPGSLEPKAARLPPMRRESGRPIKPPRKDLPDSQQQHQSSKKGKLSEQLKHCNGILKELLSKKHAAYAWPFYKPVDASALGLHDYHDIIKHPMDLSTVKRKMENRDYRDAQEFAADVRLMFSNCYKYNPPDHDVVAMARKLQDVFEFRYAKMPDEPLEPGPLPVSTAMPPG
CREBBP bromodomain (His-CREBBP(1081-1197)), sequence (Q92793 1081-1197): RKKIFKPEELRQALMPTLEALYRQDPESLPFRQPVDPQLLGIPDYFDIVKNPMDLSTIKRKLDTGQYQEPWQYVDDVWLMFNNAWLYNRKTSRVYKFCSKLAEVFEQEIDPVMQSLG
BRD3 (His-Brd3(20-477)), sequence (Q15059 20-477): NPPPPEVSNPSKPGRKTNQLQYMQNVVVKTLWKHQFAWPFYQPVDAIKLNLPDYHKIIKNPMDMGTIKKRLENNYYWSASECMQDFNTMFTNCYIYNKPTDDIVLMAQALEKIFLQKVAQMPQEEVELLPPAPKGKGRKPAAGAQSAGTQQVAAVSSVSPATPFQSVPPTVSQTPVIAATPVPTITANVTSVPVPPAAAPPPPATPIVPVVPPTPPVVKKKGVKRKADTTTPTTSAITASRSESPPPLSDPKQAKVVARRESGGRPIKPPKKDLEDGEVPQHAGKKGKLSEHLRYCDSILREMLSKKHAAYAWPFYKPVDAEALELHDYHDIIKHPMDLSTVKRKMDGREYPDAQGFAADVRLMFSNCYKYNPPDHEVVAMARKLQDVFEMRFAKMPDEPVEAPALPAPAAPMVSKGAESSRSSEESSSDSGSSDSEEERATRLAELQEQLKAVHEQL

Row | GI50 (THP-1 cells) [nM] | pIC50 [1, 2] | GI50 (K-562 cells) [nM] | GI50 (MV-4-11 cells) [nM] | SMILES | THP-1 TGI (THP-1 cells) [µM] | K-562 TGI (K-562 cells) [µM] | MV-4-11 TGI (MV-4-11 cells) [µM] | pIC50 (BRD4 (His-Brd4(44-477))) | pIC50 (BRD3 (His-Brd3(20-477))) | pIC50 (BRD2 (His-Brd2(60-472))) | pIC50 [1]
1 | 40.5 | 4.91 | 106 | 17.5 | COc1ncccc1-c1nn(C)c2c1C(=O)N(c1cc(C)c3nnc(C)n3c1)C2c1ccc(Cl)cc1 (racemic) [Example 12, 6-(4-chlorophenyl)-5-(3,8-dimethyl-[1,2,4]triazolo[4,3-a]pyridin-6-yl)-3-(2-methoxypyridin-3-yl)-1-methyl-5,6-dihydropyrrolo[3,4-c]pyrazol-4(1H)-one] | 0.09735 | >10 | 0.0378 | 7.49 | 7.51 | 7.38 | 
2 | 28.4 | 5.27 | 96.5 | 14.2 | COc1ncccc1-c1nn(C)c2c1C(=O)N(c1cc(C)c3nnc(C)n3c1)[C@@H]2c1ccc(Cl)cc1 [Example 13, (R)-6-(4-chlorophenyl)-5-(3,8-dimethyl-[1,2,4]triazolo[4,3-a]pyridin-6-yl)-3-(2-methoxypyridin-3-yl)-1-methyl-5,6-dihydropyrrolo[3,4-c]pyrazol-4(1H)-one] | 0.06465 | >10 | 0.0298 | 7.62 | 7.66 | 7.47 | 

The next lines start with the compound.

Row | SMILES | GI50 (THP-1 cells) [nM] | pIC50 [1, 2] | GI50 (K-562 cells) [nM] | GI50 (MV-4-11 cells) [nM] | THP-1 TGI (THP-1 cells) [µM] | K-562 TGI (K-562 cells) [µM] | MV-4-11 TGI (MV-4-11 cells) [µM] | pIC50 (BRD4 (His-Brd4(44-477))) | pIC50 (BRD3 (His-Brd3(20-477))) | pIC50 (BRD2 (His-Brd2(60-472))) | pIC50 [1]
3 | Cc1cc(N2C(=O)c3c(C4CC4)nn(C)c3C2c2ccc(Cl)cc2)cc2c1nnn2C (racemic) [Example 8, 6-(4-chlorophenyl)-3-cyclopropyl-5-(1,4-dimethyl-1H-benzo[d][1,2,3]triazol-6-yl)-1-methyl-5,6-dihydropyrrolo[3,4-c]pyrazol-4(1H)-one] | 7.29 | 5.32 | 24.8 | 4.71 | 0.0176 | >10 | 0.00953 |  |  |  | 
4 | Cc1cc(N2C(=O)c3c(C4CC4)nn(C)c3[C@H]2c2ccc(Cl)cc2)cc2c1nnn2C [Example 9, (R)-6-(4-chlorophenyl)-3-cyclopropyl-5-(1,4-dimethyl-1H-benzo[d][1,2,3]triazol-6-yl)-1-methyl-5,6-dihydropyrrolo[3,4-c]pyrazol-4(1H)-one] | 4.41 | 5.49 | 14.3 | 2.57 | 0.01076 | >10 | 0.005745 |  |  |  | 
5 | COc1ncccc1-c1n[nH]c2c1C(=O)N(c1cc(C)c3nnc(C)n3c1)C2c1ccc(Cl)cc1 (stereo not drawn) [Example 10, 6-(4-chlorophenyl)-5-(3,8-dimethyl-[1,2,4]triazolo[4,3-a]pyridin-6-yl)-3-(2-methoxypyridin-3-yl)-5,6-dihydropyrrolo[3,4-c]pyrazol-4(1H)-one] | 60.4 |  | 135 | 34.5 | 0.1368 | >10 | 0.0643 | 7.52 | 7.35 | 7.32 | < 4.43
6 | COc1ncccc1-c1n[nH]c2c1C(=O)N(c1cc(C)c3nnc(C)n3c1)[C@@H]2c1ccc(Cl)cc1 [Example 11, (R)-6-(4-chlorophenyl)-5-(3,8-dimethyl-[1,2,4]triazolo[4,3-a]pyridin-6-yl)-3-(2-methoxypyridin-3-yl)-5,6-dihydropyrrolo[3,4-c]pyrazol-4(1H)-one] | 28.2 | < 4.43 | 98.4 | 9.55 | 0.0428 | >10 | 0.0174 | 7.38 | 7.43 | 7.34 | 

From patent US9624247B2, “Pyrazolo-pyrrolidin-4-one derivatives as bet inhibitors and their use in the treatment of disease” (NOVARTIS AG, priority 2013, dated 2017)
